The source of these data is ChEMBL document CHEMBL1140963, “Naphthoquinoidal [1,2,3]-triazole, a new structural moiety active against Trypanosoma cruzi” (Eur J Med Chem, 2008).

A word on the IC50: it is the concentration that gives 50% inhibition. Low readings indicate greater potency, high ones weaker potency.

SMILES strings stand for the structures.

The test system of this assay is Trypanosoma cruzi. The assay can be described thus: Antitrypanosomal activity against Trypanosoma cruzi Y trypomastigotes after 1 day. The assay is classed as functional, organism-based. The settings on record: 24 h.
For `CC(C)=CC1=C(O)C(=O)c2ccccc2C1=O`, the half-maximal inhibitory concentration (IC50) was found to be 1280 µM.

`CC1(C)OC2=C(C(=O)C(=O)c3ccccc32)C1n1cc(C2(O)CCCCC2)nn1` (centres undefined) had a half-maximal inhibitory concentration (IC50) of 57.8 µM.

The compound `CC1(C)OC2=C(C(=O)C(=O)c3ccccc32)C1n1cc(-c2ccccc2)nn1` (centres undefined) came in with an IC50 of 17.3 µM. This IC50 lies about 3.3-fold lower than the previous one.

As for `CC(C)(O)c1cn(C2C3=C(OC2(C)C)c2ccccc2C(=O)C3=O)nn1` (centres undefined), the midpoint of inhibition, the IC50, lay at 152 µM.

In turn, `CC1(C)OC2=C(C(=O)C(=O)c3ccccc32)C1n1cc(COC2CCCCO2)nn1` (centres undefined) yielded a half-maximal inhibitory concentration (IC50) of 257 µM.

On to `CC1(C)OC2=C(C(=O)C(=O)c3ccccc32)C1N=[N+]=[N-]` (centres undefined), for which the IC50 was 50.2 µM.

Take `CC1(C)OC2=C(C(=O)C(=O)c3ccccc32)C1n1cc(CO)nn1` (centres undefined): the IC50 is 348 µM.

Regarding `O=C(Cn1ccnc1[N+](=O)[O-])NCc1ccccc1` [BENZNIDAZOLE], half-maximal inhibition (IC50) required 104 µM.

`CN(C)c1ccc(C(=C2C=CC(=[N+](C)C)C=C2)c2ccc(N(C)C)cc2)cc1` [GENTIAN VIOLET] gave an IC50 of 536 µM.
